The assay relates to MAPK1/ELK1 interaction. Description: SIMPL kinase/substrate interactions (ELISA and Western blot). The format is cell-based, human. The following applies: kinase-IN / substrate-IC, stimulation. The method, then:
Cell culture and treatment. HEK 293 and HeLa cell lines were generous gifts from Dr. J. Moffat. HEK 293 Flp-In T-Rex cell line was a generous gift from Dr. A. C. Gingras. These cells were grown in DMEM supplemented with 10% fetal calf serum (Life Technologies). PC9 cell line was a generous gift from Dr. P. Jannes and they were grown in RPMI 1640 medium supplemented with 10% fetal calf serum. For ELISA assay, cells were seeded in 96 well (Sarstedt AG & Co) or 384 well plates (Greiner Bio-One) with 15,000 (96 well) or 5,000 (384 well) cells per well. Cells were transfected with various plasmids with polyethylenimine (PEI) Max (Polysciences). Expression in HEK 293 Flp-In T-Rex cells was induced by treating the cells with tetracycline (1 μg/ml) for 6-16 hrs. […] Stable cell lines were created according to the manual of Flp-In T-REx (Invitrogen). Briefly, plasmid containing both bait and prey DNA and pOG44 plasmid (1:10 ratio) were cotransfected into HEK 293 Flp-In T-Rex cells.
Western blot analysis and immunoprecipitation. Cells were lysed in buffer H (Triton X 100 1%, β-glycerophosphate pH7.3 50 mM, EGTA 1.5 mM, EDTA 1 mM, orthovanadate 0.1 mM, DTT 1 mM supplemented with protease inhibitors (Roche)). […]
ELISA. […] The plate was washed 3 times with PBST followed by chemiluminescence reading using SuperSignal ELISA Pico substrate (ThermoFisher). […]
In general terms: An ELISA detects its analyte on a solid surface through an enzyme-linked reagent.

1 substance from patent US20220229068A1, “DETECTION OF PROTEIN TO PROTEIN INTERACTIONS” (THE GOVERNING COUNCIL OF THE UNIVERSITY OF TORONTO, priority 2019, published 2022) can be followed below.

On to Tetradecanoylphorbol acetate [TPA], for which the “MAPK1/ELK1 interaction after MAPK1 activation” value is “enhanced MAPK1/ELK1 interaction”.
